Assays:
Assay type in all cases: biochemical
Src enzyme = target: T1, Src enzyme (Homo sapiens, UniProt P12931); assay: Src enzyme activity, IMAP fluorescence polarization assay; details: 60 min pre-incubation, 4 μM ATP (Km)
T1 construct: purchased Millipore 14-326
Procedure: Src enzyme activity is measured using the IMAP (immobilized metal ion affinity-based fluorescence polarization) assay as outlined below.
Src enzyme (Millipore catalog#14-326), is diluted to 0.8 U/mL in KR buffer (10 mM Tris-HCl, 10 mM MgCl2, 0.01% Tween-20, 0.05% NaN3, 1 mM DTT, 2 mM MnCl2, pH 7.2).
Serial dilution log 10 from 2 mM to 63.2 nM of test compounds are made in 100% DMSO. The dilutions in DMSO are then diluted 50-fold in KR-buffer of which 5 μl is used in the assay, leading to a final compound concentration range in the assay from 10 μM to 0.316 nM. 5 μL/well of test compound in KR buffer (final DMSO concentration in the assay is 1%) is mixed with 5 μl/well of 0.8 U/mL Src enzyme (final concentration in the assay is 0.2 U/mL). Test compounds and Src enzyme are pre-incubated 60 minutes at room temperature, before adding 5 μL/well of 400 nM Fluorescin labeled substrate peptide (p34cdc2 substrate peptide, e.g. #R7157/#R7172, Molecular Devices) in KR-buffer. Final peptide substrate concentration in assay is 100 nM. The kinase assay is started by adding 5 μL/well of 16 μM ATP in KR-buffer (final ATP concentration is 4 μM ATP, Km ATP in Src IMAP assay). Following incubation for 2 h at room temperature the enzyme reaction is stopped by adding 40 μL/well IMAP Progressive Binding Solution (according to suppliers (Molecular Devices) protocol using 75% 1× buffer A and 25% 1× buffer B with 1:600 Progressive Binding Solution). After 60 min incubation at room temperature in the dark the FP signal is read. Fluorescence at 535 nm is measured using parallel and perpendicular filters to determine differences in rotation due to binding of the phosphorylated substrate peptide to the beads. Values are calculated as percentage of the difference in readout (ΔmPi) of the controls with and without ATP. EC50 values are determined by curve fitting of the experimental results using Activity Base.

Lck enzyme = target: T2, Lck enzyme (Homo sapiens, UniProt P06239); assay: Lck enzyme activity, IMAP fluorescence polarization assay; details: 60 min pre-incubation, 6 μM ATP (Km)
T2 construct: purchased Millipore 14-442
T2 sequence (P06239 whole entry): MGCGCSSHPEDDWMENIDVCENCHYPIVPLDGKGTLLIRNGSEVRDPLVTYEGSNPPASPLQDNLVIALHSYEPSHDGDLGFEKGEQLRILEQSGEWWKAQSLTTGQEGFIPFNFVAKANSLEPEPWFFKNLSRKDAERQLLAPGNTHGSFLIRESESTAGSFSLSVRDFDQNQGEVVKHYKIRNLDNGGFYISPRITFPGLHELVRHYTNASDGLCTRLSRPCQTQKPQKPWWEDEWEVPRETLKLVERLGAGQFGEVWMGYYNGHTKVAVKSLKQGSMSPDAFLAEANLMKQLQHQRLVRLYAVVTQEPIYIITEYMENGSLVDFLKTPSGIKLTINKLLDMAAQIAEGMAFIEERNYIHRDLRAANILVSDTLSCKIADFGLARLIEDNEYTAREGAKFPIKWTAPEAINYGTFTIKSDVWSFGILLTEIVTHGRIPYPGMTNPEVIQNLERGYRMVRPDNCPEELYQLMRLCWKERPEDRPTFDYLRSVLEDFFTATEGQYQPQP
Procedure: Lck enzyme activity is measured using the IMAP (immobilized metal ion affinity-based fluorescence polarization) assay as outlined below.
Lck enzyme (Millipore catalog#14-442), is diluted to 0.4 U/mL in KR buffer (10 mM Tris-HCl, 10 mM MgCl2, 0.01% Tween-20, 0.05% NaN3, 1 mM DTT, 2 mM MnCl2, pH 7.2). Serial dilution log 10 from 2 mM to 63.2 nM of test compounds are made in 100% DMSO. The dilutions in DMSO are then diluted 50-fold in KR-buffer of which 5 μl is used in the assay, leading to a final compound concentration range in the assay from 10 μM to 0.316 nM. 5 μL/well of test compound in KR buffer (final DMSO concentration in the assay is 1%) is mixed with 5 μl/well of 0.4 U/mL Lck enzyme (final concentration in the assay is 0.1 U/mL). Test compounds and Lck enzyme are pre-incubated 60 minutes at room temperature, before adding 5 μL/well of 400 nM Fluorescin labeled substrate peptide (p34cdc2 substrate peptide, e.g. #R7157/#R7172, Molecular Devices) in KR-buffer. Final peptide substrate concentration in assay is 100 nM. The kinase assay is started by adding 5 μL/well of 24 μM ATP in KR-buffer (final ATP concentration is 6 μM ATP, Km ATP in Lck IMAP assay). Following incubation for 2 h at room temperature the enzyme reaction is stopped by adding 40 μL/well IMAP Progressive Binding Solution (according to suppliers (Molecular Devices) protocol using 75% 1× buffer A and 25% 1× buffer B with 1:600 Progressive Binding Solution). After 60 min incubation at room temperature in the dark the FP signal is read. Fluorescence at 535 nm is measured using parallel and perpendicular filters to determine differences in rotation due to binding of the phosphorylated substrate peptide to the beads. Values are calculated as percentage of the difference in readout (ΔmPi) of the controls with and without ATP. EC50 values are determined by curve fitting of the experimental results using Activity Base.

FynT enzyme = target: T3, FynT enzyme (Homo sapiens, UniProt P06241); assay: FynT enzyme activity, IMAP fluorescence polarization assay; details: 60 min pre-incubation, 0.2 μM ATP (Km)
T3 construct: purchased Biomol SE-287
T3 sequence (P06241 1-534 isoform P06241-2): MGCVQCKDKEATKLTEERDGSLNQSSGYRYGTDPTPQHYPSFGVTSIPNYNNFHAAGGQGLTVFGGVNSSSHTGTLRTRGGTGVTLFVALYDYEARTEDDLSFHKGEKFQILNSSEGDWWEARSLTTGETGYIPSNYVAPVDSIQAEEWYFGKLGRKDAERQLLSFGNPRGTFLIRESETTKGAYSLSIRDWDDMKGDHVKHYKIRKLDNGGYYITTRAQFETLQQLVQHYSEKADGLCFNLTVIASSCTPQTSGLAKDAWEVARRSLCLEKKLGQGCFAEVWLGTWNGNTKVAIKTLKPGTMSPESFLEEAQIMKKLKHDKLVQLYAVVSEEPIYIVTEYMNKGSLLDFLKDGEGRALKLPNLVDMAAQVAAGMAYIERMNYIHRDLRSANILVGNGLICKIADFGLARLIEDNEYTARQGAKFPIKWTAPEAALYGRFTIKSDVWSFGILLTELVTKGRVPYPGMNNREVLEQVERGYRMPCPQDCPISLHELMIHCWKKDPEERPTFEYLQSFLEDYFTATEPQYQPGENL
Procedure: FynT enzyme activity is measured using the IMAP (immobilized metal ion affinity-based fluorescence polarization) assay as outlined below.
FynT enzyme (Biomol catalog# SE-287), is diluted to 0.5 μg/mL in KR buffer (10 mM Tris-HCl, 10 mM MgCl2, 0.01% Tween-20, 0.05% NaN3, 1 mM DTT, 2 mM MnCl2, pH 7.2). Serial dilution log 10 from 2 mM to 63.2 nM of test compounds are made in 100% DMSO. The dilutions in DMSO are then diluted 50-fold in KR-buffer of which 5 μl is used in the assay, leading to a final compound concentration range in the assay from 10 μM to 0.316 nM. 5 μL/well of test compound in KR buffer (final DMSO concentration in the assay is 1%) is mixed with 5 μl/well of 0.5 μg/mL FynT enzyme (final concentration in the assay is 125 ng/mL). Test compounds and FynT enzyme are pre-incubated 60 minutes at room temperature, before adding 5 μL/well of 400 nM Fluorescin labeled substrate peptide (p34cdc2 substrate peptide, e.g. #R7157/#R7172, Molecular Devices) in KR-buffer. Final peptide substrate concentration in assay is 100 nM. The kinase assay is started by adding 5 μL/well of 0.8 μM ATP in KR-buffer (final ATP concentration is 0.2 μM ATP, Km ATP in FynT IMAP assay). Following incubation for 2 h at room temperature the enzyme reaction is stopped by adding 40 μL/well IMAP Progressive Binding Solution (according to suppliers (Molecular Devices) protocol using 75% 1× buffer A and 25% 1× buffer B with 1:600 Progressive Binding Solution). After 60 min incubation at room temperature in the dark the FP signal is read. Fluorescence at 535 nm is measured using parallel and perpendicular filters to determine differences in rotation due to binding of the phosphorylated substrate peptide to the beads. Values are calculated as percentage of the difference in readout (ΔmPi) of the controls with and without ATP. EC50 values are determined by curve fitting of the experimental results using Activity Base.

Lyn enzyme = target: T4, Lyn enzyme (Homo sapiens, UniProt P07948); assay: Lyn enzyme activity, IMAP fluorescence polarization assay; details: 60 min pre-incubation, 2 μM ATP (Km)
T4 construct: purchased Millipore 14-510
T4 sequence (P07948 whole entry): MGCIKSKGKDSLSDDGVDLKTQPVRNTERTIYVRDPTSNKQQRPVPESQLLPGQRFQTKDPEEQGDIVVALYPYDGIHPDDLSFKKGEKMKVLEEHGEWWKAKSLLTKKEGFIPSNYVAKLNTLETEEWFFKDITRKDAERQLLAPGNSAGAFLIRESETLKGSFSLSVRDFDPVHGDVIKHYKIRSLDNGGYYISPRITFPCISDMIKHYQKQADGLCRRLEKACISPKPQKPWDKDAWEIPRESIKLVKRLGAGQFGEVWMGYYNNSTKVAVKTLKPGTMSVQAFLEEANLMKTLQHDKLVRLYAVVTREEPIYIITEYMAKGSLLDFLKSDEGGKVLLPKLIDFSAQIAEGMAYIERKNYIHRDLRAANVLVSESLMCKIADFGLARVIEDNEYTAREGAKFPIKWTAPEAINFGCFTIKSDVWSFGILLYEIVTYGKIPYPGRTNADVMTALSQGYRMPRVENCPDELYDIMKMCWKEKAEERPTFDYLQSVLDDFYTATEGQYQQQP
Procedure: Lyn enzyme activity is measured using the IMAP (immobilized metal ion affinity-based fluorescence polarization) assay as outlined below.
Lyn enzyme (Millipore catalog#14-510), is diluted to 250 mU/mL in KR buffer (10 mM Tris-HCl, 10 mM MgCl2, 0.01% Tween-20, 0.05% NaN3, 1 mM DTT, 2 mM MnCl2, pH 7.2). Serial dilution log 10 from 2 mM to 63.2 nM of test compounds are made in 100% DMSO. The dilutions in DMSO are then diluted 50-fold in KR-buffer of which 5 μl is used in the assay, leading to a final compound concentration range in the assay from 10 μM to 0.316 nM. 5 μL/well of test compound in KR buffer (final DMSO concentration in the assay is 1%) is mixed with 5 μl/well of 250 mU/mL Lyn enzyme (final concentration in the assay is 62.5 mU/mL). Test compounds and Lyn enzyme are pre-incubated 60 minutes at room temperature, before adding 5 μL/well of 400 nM Fluorescin labeled substrate peptide (Blk/Lyntide substrate, e.g. #R7188/#R7233, Molecular Devices) in KR-buffer. Final peptide substrate concentration in assay is 100 nM. The kinase assay is started by adding 5 μL/well of 8 μM ATP in KR-buffer (final ATP concentration is 2 μM ATP, Km ATP in Lyn IMAP assay). Following incubation for 2 h at room temperature the enzyme reaction is stopped by adding 40 μL/well IMAP Progressive Binding Solution (according to suppliers (Molecular Devices) protocol using 75% 1× buffer A and 25% 1× buffer B with 1:600 Progressive Binding Solution). After 60 min incubation at room temperature in the dark the FP signal is read. Fluorescence at 535 nm is measured using parallel and perpendicular filters to determine differences in rotation due to binding of the phosphorylated substrate peptide to the beads. Values are calculated as percentage of the difference in readout (ΔmPi) of the controls with and without ATP. EC50 values are determined by curve fitting of the experimental results using Activity Base.

T1 sequence (P12931 whole entry): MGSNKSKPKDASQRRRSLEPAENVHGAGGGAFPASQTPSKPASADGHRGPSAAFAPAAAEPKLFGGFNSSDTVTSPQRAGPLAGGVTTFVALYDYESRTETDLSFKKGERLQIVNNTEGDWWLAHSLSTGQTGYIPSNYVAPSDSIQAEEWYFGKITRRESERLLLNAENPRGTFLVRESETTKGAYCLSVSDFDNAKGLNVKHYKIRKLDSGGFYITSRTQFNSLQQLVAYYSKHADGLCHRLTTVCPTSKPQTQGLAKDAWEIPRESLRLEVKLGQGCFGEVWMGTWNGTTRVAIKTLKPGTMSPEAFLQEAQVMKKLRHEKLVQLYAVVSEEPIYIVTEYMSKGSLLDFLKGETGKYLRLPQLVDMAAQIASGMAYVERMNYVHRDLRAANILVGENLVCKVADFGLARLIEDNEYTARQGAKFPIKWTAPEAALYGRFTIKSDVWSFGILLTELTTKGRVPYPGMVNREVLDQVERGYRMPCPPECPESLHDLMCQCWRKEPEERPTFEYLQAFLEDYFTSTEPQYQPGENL

Structure (SMILES) | EC50 (Src enzyme) [µM] | EC50 (Lck enzyme) [µM] | EC50 (FynT enzyme) [µM] | EC50 (Lyn enzyme) [µM]
C=CC(=O)N1CCC[C@H]1c1nc(-c2ccc(C(=O)Nc3cc(C)ccn3)cc2)c2c(C)nccn12 [Example 11, (S)-4-(3-(1-Acryloylpyrrolidin-2-yl)-8-methylimidazo[1,5-a]pyrazin-1-yl)-N-(4-methylpyridin-2-yl)benzamide] | ≥ 1 | ≥ 1 | ≥ 1 | ≥ 1
CC#CC(=O)N1CCC[C@H]1c1nc(-c2ccc(C(=O)Nc3cc(C(F)(F)F)ccn3)cc2)c2c(C)nccn12 [Example 26, (S)-4-(3-(1-but-2-ynoylpyrrolidin-2-yl)-8-methylimidazo[1,5-a]pyrazin-1-yl)-N-(4-(trifluoromethyl)pyridin-2-yl)benzamide] | ≥ 1 | ≥ 1 | ≥ 1 | ≥ 1
CC#CC(=O)N1CCC[C@H]1c1nc(-c2ccc(C(=O)Nc3cc(CC)ccn3)cc2)c2c(C)nccn12 [Example 20, (S)-4-(3-(1-but-2-ynoylpyrrolidin-2-yl)-8-methylimidazo[1,5-a]pyrazin-1-yl)-N-(4-ethylpyridin-2-yl)benzamide] | ≥ 1 | ≥ 1 | ≥ 1 | ≥ 1
C=CC(=O)N1CCC[C@H]1c1nc(-c2ccc(C(=O)Nc3cc(OC)ccn3)cc2)c2c(C)nccn12 [Example 12, (S)-4-(3-(1-acryloylpyrrolidin-2-yl)-8-methylimidazo[1,5-a]pyrazin-1-yl)-N-(4-methoxypyridin-2-yl)benzamide] | ≥ 1 | ≥ 1 | ≥ 1 | ≥ 1
Cc1nccn2c([C@@H]3CCCCN3C(=O)c3ccnc(Cl)n3)nc(-c3ccc(C(=O)Nc4cc(C(F)(F)F)ccn4)cc3)c12 [Example 17, (S)-4-(3-(1-(2-chloropyrimidine-4-carbonyl)piperidin-2-yl)-8-methylimidazo[1,5-a]pyrazin-1-yl)-N-(4-(trifluoromethyl)pyridin-2-yl)benzamide] | ≥ 1 | ≥ 1 | ≥ 1 | ≥ 1

Continued, values first:

EC50 (Src enzyme) [µM] | EC50 (Lck enzyme) [µM] | EC50 (FynT enzyme) [µM] | EC50 (Lyn enzyme) [µM] | Structure (SMILES)
≥ 1 | ≥ 1 | ≥ 1 | ≥ 1 | CC#CC(=O)N1CCC[C@H]1c1nc(-c2ccc(C(=O)Nc3cc(CCC)ccn3)cc2)c2c(C)nccn12 [Example 33, (S)-4-(3-(1-but-2-ynoylpyrrolidin-2-yl)-8-methylimidazo[1,5-a]pyrazin-1-yl)-N-(4-propylpyridin-2-yl)benzamide]
≥ 1 | ≥ 1 | ≥ 1 | ≥ 1 | CCCc1ccnc(NC(=O)c2ccc(-c3nc([C@H](C)N(C)C(=O)/C=C/COC)n4ccnc(C)c34)cc2)c1 [Example 39, (S,E)-4-(3-(1-(4-methoxy-N-methylbut-2-enamido)ethyl)-8-methylimidazo[1,5-a]pyrazin-1-yl)-N-(4-propylpyridin-2-yl)benzamide]
≥ 1 | ≥ 1 | ≥ 1 | ≥ 1 | Cc1nccn2c([C@@H]3CCCN3C(=O)/C=C/CN(C)C)nc(-c3ccc(C(=O)Nc4ccccn4)cc3)c12 [Example 31, (S,E)-4-(3-(1-(4-(dimethylamino)but-2-enoyl)pyrrolidin-2-yl)-8-methylimidazo[1,5-a]pyrazin-1-yl)-N-(pyridin-2-yl)benzamide]
≥ 1 | ≥ 1 | ≥ 1 | ≥ 1 | CC#CC(=O)N1CCC[C@H]1c1nc(-c2ccc(C(=O)Nc3cc(C#N)ccn3)cc2)c2c(C)nccn12 [Example 32, (S)-4-(3-(1-but-2-ynoylpyrrolidin-2-yl)-8-methylimidazo[1,5-a]pyrazin-1-yl)-N-(4-cyanopyridin-2-yl)benzamide]
≥ 1 | ≥ 1 | ≥ 1 | ≥ 1 | COC/C=C/C(=O)N1CCCC[C@H]1c1nc(-c2ccc(C(=O)Nc3cc(C(F)(F)F)ccn3)cc2)c2c(C)nccn12 [Example 30, (S,E)-4-(3-(1-(4-methoxybut-2-enoyl)piperidin-2-yl)-8-methylimidazo[1,5-a]pyrazin-1-yl)-N-(4-(trifluoromethyl)pyridin-2-yl)benzamide]

From US20140155406A1, “4-IMIDAZOPYRIDAZIN-1-YL-BENZAMIDES AND 4-IMIDAZOTRIAZIN-1-YL-BENZAMIDES BTK INHIBITORS” (priority 2011, published 2014)
